Patent US7544707B2, “Bicyclic derivatives as PPAR modulators” (Eli Lilly and Company, priority 2003, dated 2009)

Row | melting point [°C] | Compound
1 | 183 to 185 | O=C(O)Cc1csc2cc(SCc3cccc4nn(-c5ccc(C(F)(F)F)cc5)cc34)ccc12 [Example 29, 6-[2-(4-Trifluoromethylphenyl)-2H-indazol-4-ylmethylsulfanyl]benzo[b]thiophen-3-ylacetic Acid]
2 | 147 to 149 | O=C(O)Cc1cccc(SCc2cccc3cn(-c4ccc(C(F)(F)F)cc4)nc23)c1 [Example 4, 3-[2-(4-Trifluoromethylphenyl)-2H-indazol-7-ylmethylsulfanyl]phenylacetic Acid]
3 | 118 to 120 | Cc1cc(SC(C)(C)c2cccc3cn(-c4ccc(C(F)(F)F)cc4)nc23)ccc1OCC(=O)O [Example 14, 2-Methyl-4-{1-methyl-1-[2-(4-trifluoromethylphenyl)-2H-indazol-7-yl]ethylsulfanyl}phenoxyacetic Acid]
4 | 205 to 210 | Cc1cc(SC(CCC(F)(F)F)c2cccc3c2cnn3-c2ccc(C(F)(F)F)cc2)ccc1OC(C)(C)C(=O)O (racemic) [Example 88, (+/−)-2-Methyl-2-(2-methyl-4-{4,4,4-trifluoro-1-[1-(4-trifluoromethylphenyl)-1H-indazol-4-yl]butylsulfanyl}phenoxy)propionic Acid]
5 | 156 to 158 | Cc1cc(OC(C)c2ccc3cn(-c4ccc(C(F)(F)F)cc4)nc3c2)ccc1OC(C)(C)C(=O)O (racemic) [Example 57, (+/−)-2-Methyl-2-(2-methyl-4-{1-[2-(4-trifluoromethylphenyl)-2H-indazol-6-yl]ethoxy}phenoxy)propionic Acid]
6 | 164 to 166 | Cc1cc(OCc2ccc3nn(-c4ccc(C(F)(F)F)cc4)cc3c2)ccc1OC(C)(C)C(=O)O [Example 61, 2-Methyl-2-{2-methyl-4-[2-(4-trifluoromethylphenyl)-2H-indazol-5-ylmethoxy]phenoxy}propionic Acid]
7 | 114 to 116 | Cc1cc(SC(C)c2ccc3cn(-c4ccc(C(F)(F)F)cc4)nc3c2)ccc1OC(C)(C)C(=O)O (racemic) [Example 60, (+/−)-2-Methyl-2-(2-methyl-4-{1-[2-(4-trifluoromethylphenyl)-2H-indazol-6-yl]ethylsulfanyl}phenoxy)propionic Acid]
8 | 157 to 159 | CCc1cc(OCc2cccc3cn(-c4ccc(C(F)(F)F)cc4)nc23)ccc1CCC(=O)O [Example 7, 3-{2-Ethyl-4-[2-(4-trifluoromethylphenyl)-2H-indazol-7-ylmethoxy]phenol}propionic Acid]
9 | 153 to 155 | CC(Oc1ccc(SC(C)(C)C(=O)O)cc1)c1ccc2nn(-c3ccc(C(F)(F)F)cc3)cc2c1 (racemic) [Example 67, (+/−)-2-Methyl-2-(4-{1-[2-(4-trifluoromethylphenyl)-2H-indazol-5-yl]ethoxy}phenylsulfanyl)propionic Acid]
10 | 112 to 114 | CC(C)(Oc1ccc(SCCc2cccc3cn(-c4ccc(C(F)(F)F)cc4)nc23)cc1)C(=O)O [Example 50, 2-Methyl-2-(4-{2-[2-(4-trifluoromethylphenyl)-2H-indazol-7-yl]ethylsulfanyl}phenoxy)propionic Acid]
11 | 119 to 121 | Cc1cc(OCc2ccc3cn(-c4ccc(C(F)(F)F)cc4)nc3c2)ccc1OC(C)(C)C(=O)O [Example 51, 2-Methyl-2-{2-methyl-4-[2-(4-trifluoromethylphenyl)-2H-indazol-6-ylmethoxy]phenoxy}propionic Acid]
12 | 116 to 118 | Cc1cc(SCc2ccc3cn(-c4ccc(C(F)(F)F)cc4)nc3c2)ccc1OC(C)(C)C(=O)O [Example 53, 2-Methyl-2-{2-methyl-4-[2-(4-trifluoromethylphenyl)-2H-indazol-6-ylmethylsulfanyl]phenoxy}propionic Acid]
13 | 178 to 180 | CC(C)(Oc1ccc(OCc2cccc3cn(-c4ccc(C(F)(F)F)cc4)nc23)cc1)C(=O)O [Example 39, 2-Methyl-2-{4-[2-(4-trifluoromethylphenyl)-2H-indazol-7-ylmethoxy]phenoxy}propionic Acid]
14 | 154 to 158 | Cc1cc(SCc2cccc3cnn(-c4ccc(C(F)(F)F)cc4)c23)ccc1OC(C)(C)C(=O)O [Example 98, 2-Methyl-2-{2-methyl-4-[1-(4-trifluoromethylphenyl)-1H-indazol-7-ylmethylsulfanyl]phenoxy}propionic Acid]
15 | 141 to 143 | O=C(O)Cc1csc2cc(SCc3cccc4cn(-c5ccc(C(F)(F)F)cc5)nc34)ccc12 [Example 5, 6-[2-(4-Trifluoromethylphenyl)-2H-indazol-7-ylmethylsulfanyl]benzo[b]thiophen-3-ylacetic Acid]
16 | 119 to 121 | CCc1cc(SCc2ccc3cn(-c4ccc(C(F)(F)F)cc4)nc3c2)ccc1OCC(=O)O [Example 21, 2-Ethyl-4-[2-(4-trifluoromethylphenyl)-2H-indazol-6-ylmethylsulfanyl]phenoxyacetic Acid]

Row | melting point [°C] | Compound
17 | 100 to 104 | Cc1cc(OCc2cccc3c2cnn3-c2ccc(C(F)(F)F)cc2)ccc1OC(C)(C)C(=O)O [Example 77, 2-Methyl-2-{2-methyl-4-[1-(4-trifluoromethylphenyl)-1H-indazol-4-ylmethoxy]phenoxy}propionic Acid]
18 | 122 to 124 | CCc1cc(SCc2cccc3c2cnn3-c2ccc(C(F)(F)F)cc2)ccc1OCC(=O)O [Example 31, 2-Ethyl-4-[1-(4-trifluoromethylphenyl)-1H-indazol-4-ylmethylsulfanyl]phenoxyacetic Acid]
19 | 129 to 131 | CC(C)(Oc1ccc(COCc2ccc3cn(-c4ccc(C(F)(F)F)cc4)nc3c2)cc1)C(=O)O [Example 56, 2-Methyl-2-{4-[2-(4-trifluoromethylphenyl)-2H-indazol-6-ylmethoxymethyl]phenoxy}propionic Acid]
20 | 70 to 72 | Cc1cc(SC(C)c2ccc3nn(-c4ccc(C(F)(F)F)cc4)cc3c2)ccc1OC(C)(C)C(=O)O (racemic) [Example 69, (+/−)-2-Methyl-2-(2-methyl-4-{1-[2-(4-trifluoromethylphenyl)-2H-indazol-5-yl]ethylsulfanyl}phenoxy)propionic Acid]
21 | 140 to 142 | Cc1cc(SC(C)c2cccc3cn(-c4ccc(C(F)(F)F)cc4)nc23)ccc1OC(C)(C)C(=O)O (racemic) [Example 41, (+/−)-2-Methyl-2-(2-methyl-4-{1-[2-(4-trifluoromethylphenyl)-2H-indazol-7-yl]ethylsulfanyl}phenoxy)propionic Acid]
22 | 158 to 160 | CC(C)(Oc1ccc(SCc2cccc3c2cnn3-c2ccc(C(F)(F)F)cc2)cc1)C(=O)O [Example 79, 2-Methyl-2-{4-[1-(4-trifluoromethylphenyl)-1H-indazol-4-ylmethylsulfanyl]phenoxy}propionic Acid]
23 | 133 to 135 | CC(C)(Sc1ccc(OCc2ccc3cn(-c4ccc(C(F)(F)F)cc4)nc3c2)cc1)C(=O)O [Example 55, 2-Methyl-2-{4-[2-(4-trifluoromethylphenyl)-2H-indazol-6-ylmethoxy]phenylsulfanyl}propionic Acid]
24 | 168 to 170 | CC(C)(Sc1ccc(OCc2cccc3c2cnn3-c2ccc(C(F)(F)F)cc2)cc1)C(=O)O [Example 80, 2-Methyl-2-{4-[1-(4-trifluoromethylphenyl)-1H-indazol-4-ylmethoxy]phenylsulfanyl}propionic Acid]
25 | 192 to 194 | CC(C)(Sc1ccc(OCc2ccc3nn(-c4ccc(C(F)(F)F)cc4)cc3c2)cc1)C(=O)O [Example 62, 2-Methyl-2-{4-[2-(4-trifluoromethylphenyl)-2H-indazol-5-ylmethoxy]phenylsulfanyl}propionic Acid]
26 | 124 to 126 | Cc1cc(OCc2cccc3cnn(-c4ccc(C(F)(F)F)cc4)c23)ccc1OC(C)(C)C(=O)O [Example 96, 2-Methyl-2-{2-methyl-4-[1-(4-trifluoromethylphenyl)-1H-indazol-7-ylmethoxy]phenoxy}propionic Acid]
27 | 120 to 123 | Cc1cc(SCc2cccc3cnn(-c4ccc(C(F)(F)F)cc4)c23)ccc1CCC(=O)O [Example 33, 3-{2-Methyl-4-[1-(4-trifluoromethylphenyl)-1H-indazol-7-ylmethylsulfanyl]phenyl}propionic Acid]
28 | 137 to 139 | Cc1cc(SCCc2cccc3cn(-c4ccc(C(F)(F)F)cc4)nc23)ccc1OCC(=O)O [Example 46, (2-Methyl-4-{2-[2-(4-trifluoromethylphenyl)-2H-indazol-7-yl]ethylsulfanyl}phenoxy)acetic Acid]
29 | 150 to 152 | CC(Sc1ccc(OC(C)(C)C(=O)O)cc1)c1cccc2cn(-c3ccc(C(F)(F)F)cc3)nc12 (racemic) [Example 42, (+/−)-2-Methyl-2-(4-{1-[2-(4-trifluoromethylphenyl)-2H-indazol-7-yl]ethylsulfanyl}phenoxy)propionic Acid]
30 | 139 to 141 | Cc1cc(OC(C)c2cccc3cn(-c4ccc(C(F)(F)F)cc4)nc23)ccc1OC(C)(C)C(=O)O (racemic) [Example 40, (+/−)-2-Methyl-2-(2-methyl-4-{1-[2-(4-trifluoromethylphenyl)-2H-indazol-7-yl]ethoxy}phenoxy)propionic Acid]
31 | 105 to 108 | Cc1cc(SCc2cccc3nn(-c4ccc(C(F)(F)F)cc4)cc23)ccc1OCC(=O)O [Example 26, 2-Methyl-4-[2-(4-trifluoromethylphenyl)-2H-indazol-4-ylmethylsulfanyl]phenoxyacetic Acid]
32 | 133 to 135 | Cc1cc(OCc2cccc3cn(-c4ccc(C(F)(F)F)cc4)nc23)ccc1CCC(=O)O [Example 6, 3-{2-Methyl-4-[2-(4-trifluoromethylphenyl)-2H-indazol-7-ylmethoxy]phenyl}propionic Acid]

Row | Compound | melting point [°C]
33 | CC(C)(Sc1ccc(OC(CCC(F)(F)F)c2cccc3c2cnn3-c2ccc(C(F)(F)F)cc2)cc1)C(=O)O (racemic) [Example 89, (+/−)-2-Methyl-2-(4-{4,4,4-trifluoro-1-[1-(4-trifluoromethylphenyl)-1H-indazol-4-yl]butoxy}phenylsulfanyl)propionic Acid] | > 260
